The values that follow are results of earlier work, collected in patent US6462026B1, “Bicyclic leucomycins” (Enanta Pharmaceuticals, Inc., priority 2001, dated 2002).

Like-named read-outs stand apart in the source and are kept apart here.

For data set [1] the following is noted: parent compound rokitamycin.
The conditions of data set [2]: metabolites isolated from urine and plasma of adults given oral josamycin.
The conditions of data set [3]: dogs; compared with other 3″-O-acyl derivatives of leucomycin A5.
For data set [4] the following is noted: monkeys; compared with other 3″-O-acyl derivatives of leucomycin A5.
The test system of the next data set is Gram-negative bacteria. The following applies: relative to leucomycin A5, josamycin and midecamycin.

Regarding “4″-debutyryl leucomycin A5 [Lecomycin V]”, in data set [1], the “in vitro potency relative to the parent compound” value was “one-tenth”. 5-hydroxyjosamycin: in data set [2], the antimicrobial activity result is given as “poor antimicrobial activity”.

Turning to `CCC(=O)O[C@H]1[C@H](C)O[C@@H](O[C@H]2[C@H](N(C)C)[C@@H](O)[C@H](O[C@H]3[C@@H](CC=O)C[C@@H](C)[C@@H](O)/C=C/C=C/C[C@@H](C)OC(=O)C[C@@H](O)[C@@H]3OC)O[C@@H]2C)C[C@@]1(C)O` [Leucomycin A7], the “in vitro potency relative to the parent compound” value in data set [1] is reported as “one-half”. Turning to `COC1C(O)CC(=O)OC(C)CC=CC=CC(=O)C(C)CC(CC=O)C1OC1OC(C)C(OC2CC(C)(O)C(OC(=O)CC(C)C)C(C)O2)C(N(C)C)C1O` (centres unmarked) [Niddamycin], the “antibacterial activity in vitro” value in the data set with Gram-positive bacteria and with Mycoplasma spp. was “good antibacterial activity” each time.

As for `COC1C(OC(C)=O)CC(=O)OC(C)CC=CC=CC(O)C(C)CC(CC=O)C1OC1OC(C)C(OC2CC(C)(O)C(O)C(C)O2)C(N(C)C)C1O` (centres unmarked) [desisovaleryl josamycin], the antimicrobial activity entry in data set [2] was “inactive”. In the case of `CCCC(=O)O[C@H]1[C@H](C)O[C@@H](O[C@H]2[C@H](N(C)C)[C@@H](O)[C@H](O[C@H]3[C@@H](CC=O)C[C@@H](C)[C@@H](O)/C=C/C=C/C[C@@H](C)OC(=O)C[C@@H](O)[C@@H]3OC)O[C@@H]2C)C[C@@]1(C)OC(=O)CC` [rokitamycin, 3″-O-propionyl leucomycin A5], the serum levels result in data set [3] and in data set [4] was “highest serum levels” in each case. Moreover, in the data set on Gram-negative bacteria, the “in vitro activity against Gram-negative bacteria” value is given as “twice as high”. Regarding demycarosyl josamycin, the antimicrobial activity entry in data set [2] is “inactive”. For the compound β-hydroxyisovaleryl josamycin, the antimicrobial activity result in data set [2] is “poor antimicrobial activity”.
